Test results published in PMC9966181, “Polyphenols with Anti-Inflammatory Properties: Synthesis and Biological Activity of Novel Curcumin Derivatives” (International Journal of Molecular Sciences, 2023).

Legend:
Type in all cases: cell-based, C57BL/6 mice
IL-6 production = test: Inhibition of IL-6 production in LPS-stimulated peritoneal macrophages (ELISA); details: for Effect on production of IL-6 at single concentration: 30 μM, 1 h before 10 ng/mL LPS; for Effect on production of IL-6 at single concentration / Dose-dependent inhibition of IL-6 production: 6 h; for IC50: peritoneal macrophages, compounds 1 h before 10 ng/mL LPS, supernatant after 6 h, average of three independent experiments in duplicate ± S.D.; for Relative activity on IL-6 production (SAR ranking): ranking in discussion; for Dose-dependent inhibition of IL-6 production: 1, 3, 10, 30 μM, 10 ng/mL LPS
Procedure: (§1) Peritoneal macrophages were obtained four days after i.p. instillation of 2 mL of thioglycollate 3%, by peritoneal washing with chilled RPMI. Cells were seeded in RPMI with 10% FCS at 2 × 10^5/well in 96-well plates and cultured for 2 h at 37 °C in an atmosphere of 5% CO2. Cells were treated with compounds 1–15 (30 μM) 1 h before the stimulus with 10 ng/mL of LPS. For dose response experiments, cells were pre-treated with different concentrations (1, 3, 10, 30 μM) of compounds 1, 2, 4, 5, 6, 8, 10, 13, and 15 before the stimulation with 10 ng/mL of LPS. All the treatments and controls were performed in the presence of 0.5% of DMSO, as compounds are solubilized in this solvent. Supernatants were collected 6h after the stimulus with LPS.
(§2) Peritoneal macrophages were cultured as previously described. The concentrations of IL-6 were determined by ELISA (DuoSet kit, R&D System) according to the manufacturer’s protocol. The concentration of prostaglandin E2 (PGE2) was determined using the “Prostaglandin E2 ELISA Kit - Monoclonal” from Cayman CHEMICAL, according to the manufacturer’s protocol.
(§3) Results were analyzed using the statistical software package GraphPad Prism 5. Data are presented as means ± S.E.M. Statistical analysis was performed by Student’s t-test. A significant difference between groups was considered when p < 0.05. The half maximal inhibitory concentration (IC50) was calculated by adjusting a sigmoidal dose–response curve following GraphPad Prism5 procedure.

PGE2 production = test: Inhibition of PGE2 production in LPS-stimulated peritoneal macrophages (ELISA); details: for IC50: peritoneal macrophages, compounds 1 h before 10 ng/mL LPS, supernatant after 6 h, average of three independent experiments in duplicate ± S.D.; for Relative activity on PGE2 production (SAR ranking): ranking among the monofunctionalized, discussion
Procedure: as §1, §2, §3

Peritoneal macrophages = test: Cytotoxicity assay (MTT) on peritoneal macrophages; details: 30 μM, after supernatant collection
Procedure: as §1
After the removal of supernatants, 100 µL of MTT (0.5 mg/mL) dissolved in RPMI were added to each well and cells were incubated overnight at 37 °C. The supernatants were removed and formazan crystals were dissolved in 100 µL of 0.04 M HCl in isopropanol. The color was analyzed at 570 nm using an ELISA plate reader. The percent of viable cells was calculated using the formula: % viability: [(OD sample) × 100%]/(OD control). The non-stimulated cells, cultured in medium plus 10% FCS and 0.5% DMSO, represented 100% viability.

[1] = Mus musculus, Peritoneal macrophage

Row | IC50 (IL-6 production; [1]) [µM] | IC50 (PGE2 production; [1]) [µM] | Compound | Effect on production of IL-6 at single concentration (IL-6 production) | Relative activity on PGE2 production (SAR ranking) (PGE2 production) | Relative activity on IL-6 production (SAR ranking) (IL-6 production) | other results
1 | 3.6 ± 0.21 | 5.93 ± 2.29 | COc1cc(/C=C/C(O)=C/C(=O)/C=C/c2ccc(OC(=O)CCC(=O)OC3c4ccccc4-c4ccccc43)c(OC)c2)ccc1O [Compound 10, 9H-Fluoren-9-yl (4-((1E,4Z,6E)-5-hydroxy-7-(4-hydroxy-3-methoxyphenyl)-3-oxohepta-1,4,6-trien-1-yl)-2-methoxyphenyl) Succinate] | inhibited the production of IL-6 | lowest activity | – | –
2 | 10.6 ± 0.33 | 5.42 ± 2.04 | COc1cc(/C=C/C(O)=C/C(=O)/C=C/c2ccc(OC(=O)CCC(=O)O[C@@H]3C[C@H](C)CC[C@H]3C(C)C)c(OC)c2)ccc1O [Compound 13, 4-((1E,4Z,6E)-5-Hydroxy-7-(4-hydroxy-3-methoxyphenyl)-3-oxohepta-1,4,6-trien-1-yl)-2-methoxyphenyl((1R,2S,5R)-2-isopropyl-5-methylcyclohexyl) Succinate] | – | lowest activity | less active | –
3 | – | – | COc1cc(/C=C/C(O)=C/C(=O)/C=C/c2ccc(OC(=O)CCC(=O)O[C@@H]3C[C@H](C)CC[C@H]3C(C)C)c(OC)c2)ccc1OC(=O)CCC(=O)O[C@H]1C[C@@H](C)CC[C@@H]1C(C)C [Compound 12, O,O′-(((1E,3Z,6E)-3-Hydroxy-5-oxohepta-1,3,6-triene-1,7-diyl)bis(2-methoxy-4,1-phenylene)) bis((1R,2S,5R)-2-isopropyl-5-methylcyclohexyl) Disuccinate] | did not show this activity | – | – | –
4 | – | – | COc1cc(/C=C/C(=O)/C=C(O)/C=C/c2ccc(OC(=O)CCC(=O)OC(c3ccccc3)C3CCCCC3)c(OC)c2)ccc1OC(=O)CCC(=O)OC(c1ccccc1)C1CCCCC1 (centres unmarked) [Compound 7, Bis(cyclohexyl(phenyl)methyl) O,O′-(((1E,3Z,6E)-3-hydroxy-5-oxohepta-1,3,6-triene-1,7-diyl)bis(2-methoxy-4,1-phenylene)) Disuccinate] | did not show this activity | – | – | –
5 | – | – | Curcumin [Compound 1, reference compound] | – | – | – | Cytotoxicity / cell viability (MTT) (Peritoneal macrophages): affected cell viability; Dose-dependent inhibition of IL-6 production (IL-6 production): inhibited the production of IL-6 in a dose-dependent manner; IC50 (IL-6 production): 6.85 ± 2.5 µM; IC50 (PGE2 production): 1.34 ± 0.067 µM
6 | 7.11 ± 0.75 | 2.6 ± 1.75 | COc1cc(/C=C/C(O)=C/C(=O)/C=C/c2ccc(OC(=O)CCC(=O)OCc3ccc4c(c3)C(=O)c3ccccc3C4=O)c(OC)c2)ccc1O [Compound 5, (9,10-Dioxo-9,10-dihydroanthracen-2-yl)methyl (4-((1E,4Z,6E)-5-hydroxy-7-(4-hydroxy-3-methoxyphenyl)-3-oxohepta-1,4,6-trien-1-yl)-2-methoxyphenyl) Succinate] | – | showed activity | less active | –
7 | 1.94 ± 0.66 | 5.9 ± 2.38 | COc1cc(/C=C/C(O)=C/C(=O)/C=C/c2ccc(OC(=O)CCC(=O)OC(c3ccccc3)C3CCCCC3)c(OC)c2)ccc1O (centres unmarked) [Compound 8, Cyclohexyl(phenyl)methyl (4-((1E,4Z,6E)-5-hydroxy-7-(4-hydroxy-3-methoxyphenyl)-3-oxohepta-1,4,6-trien-1-yl)-2-methoxyphenyl) Succinate] | not statistically significant | lowest activity | – | –
8 | – | – | COc1cc(/C=C/C(=O)/C=C(O)/C=C/c2ccc(OC(=O)CCC(=O)OC3C4CC5CC(C4)CC3C5)c(OC)c2)ccc1OC(=O)CCC(=O)OC1C2CC3CC(C2)CC1C3 (centres unmarked) [Compound 3, Di((1r,3r,5r,7r)-adamantan-2-yl) O,O′-(((1E,3Z,6E)-3-hydroxy-5-oxohepta-1,3,6-triene-1,7-diyl)bis(2-methoxy-4,1-phenylene)) Disuccinate] | did not show this activity | – | – | –
9 | 10.5 ± 0.6 | 4.5 ± 3.18 | COc1cc(/C=C/C(O)=C/C(=O)/C=C/c2ccc(OC(=O)CCC(=O)OC3C4CC5CC(C4)CC3C5)c(OC)c2)ccc1O (centres unmarked) [Compound 4, (1r,3r,5r,7r)-Adamantan-2-yl (4-((1E,4Z,6E)-5-hydroxy-7-(4-hydroxy-3-methoxyphenyl)-3-oxohepta-1,4,6-trien-1-yl)-2-methoxyphenyl) Succinate] | inhibited the production of IL-6 | lowest activity | less active | –
10 | – | – | 4-((1E,4Z,6E)-5-Hydroxy-7-(4-hydroxy-3-methoxyphenyl)-3-oxohepta-1,4,6-trien-1-yl)-2-methoxyphenyl (1,2,3,4-tetrahydronaphthalen-1-yl) Succinate [Compound 15] | – | showed activity | less active | IC50 (IL-6 production): 10.4 ± 0.75 µM; Effect on PGE2 production at 3 μM (PGE2 production; 3 μM): significantly reduced PGE2 production; IC50 (PGE2 production): 3.07 ± 0.72 µM
11 | 3.59 ± 0.27 | 0.51 ± 0.08 | COc1cc(/C=C/C(O)=C/C(=O)/C=C/c2ccc(OCc3ccccc3)c(OC)c2)ccc1O [Compound 2, reference compound] | – | – | – | Effect on IL-6 production at lowest concentration (IL-6 production; 1 μM): statistically significant inhibitory effect; Dose-dependent inhibition of IL-6 production (IL-6 production): inhibited the production of IL-6 in a dose-dependent manner; Effect on PGE2 production at 1 μM (PGE2 production; 1 μM): showed an effect; Dose-dependent inhibition of PGE2 production (PGE2 production; 1, 3, 10, 30 μM, 10 ng/mL LPS, 6 h): inhibitory effect on PGE2 production at all concentrations tested
12 | 4.21 ± 0.73 | 4.43 ± 0.85 | COc1cc(/C=C/C(O)=C/C(=O)/C=C/c2ccc(OC(=O)CCC(=O)OC(c3ccccc3)c3ccccc3)c(OC)c2)ccc1O [Compound 6, Benzhydryl (4-((1E,4Z,6E)-5-hydroxy-7-(4-hydroxy-3-methoxyphenyl)-3-oxohepta-1,4,6-trien-1-yl)-2-methoxyphenyl) Succinate] | inhibited the production of IL-6 | showed activity | – | –
13 | – | – | COc1cc(/C=C/C(=O)/C=C(O)/C=C/c2ccc(OC(=O)CCC(=O)OC3c4ccccc4-c4ccccc43)c(OC)c2)ccc1OC(=O)CCC(=O)OC1c2ccccc2-c2ccccc21 [Compound 9, Di(9H-fluoren-9-yl) O,O′-(((1E,3Z,6E)-3-hydroxy-5-oxohepta-1,3,6-triene-1,7-diyl)bis(2-methoxy-4,1-phenylene)) Disuccinate] | did not show this activity | – | – | –
